Assay results reported in patent US10076519B2 (CYTOKINETICS, INC., priority 2010, dated 2018).

Tested on: rabbit skeletal myofibrils (fast skeletal myofibrils)
Test: Activation of fast skeletal myofibrils (PUMA assay, PK/LDH-coupled ATPase at pCa25)
Format: biochemical
Conditions: AC1.4 determined according to the procedure of Example 39; reported as class symbols
Summary of the method: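 Detergent-washed rabbit psoas myofibrils (~90% fast fibres, calcium-regulated) assayed at calcium giving 25% of maximal ATPase rate (pCa25). ADP turnover coupled via pyruvate kinase/lactate dehydrogenase to NADH oxidation, read at 340 nm. Buffer 12 mM PIPES, 2 mM MgCl2, 1 mM DTT, pH 6.8; AC1.4 values derived.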

| Mean AC1.4 | SMILES |
| --- | --- |
| D (D=>20 uM) | CC(C)(CNc1ccc(C(=O)N[C@H]2CCC[C@H]2C(N)=O)nn1)c1ccc(F)cc1 (stereo in doubt) [(2S,1R)-2-[(6-{[2-(4-fluorophenyl)-2-methylpropyl]amino}pyridazin-3-yl)carbonylamino]cyclopentane-carboxamide] |
| D (D=>20 uM) | CC(=O)c1ccc(NCC(C)(C)c2ccc(F)cc2)nn1 [1-(6-{[2-(4-fluorophenyl)-2-methylpropyl]amino}pyridazin-3-yl)ethan-1-one] |
| D (D=>20 uM) | NC(=O)c1cccc(-c2ccc(NCC3(C(=O)O)CCC3)nn2)c1 [1-({[6-(3-carbamoylphenyl)pyridazin-3-yl]amino}methyl)cyclobutane-carboxylic acid] |
| D (D=>20 uM) | N#Cc1cccc(-c2ccc(NCC3(C(=O)O)CCC3)nn2)c1 [1-({[6-(3-cyanophenyl)pyridazin-3-yl]amino}methyl)cyclobutane-carboxylic acid] |

Same assay, conditions: median AC1.4 class, procedure of Example 39

| Mean AC1.4 | SMILES |
| --- | --- |
| A (A=<1 uM) | NC(=O)c1cccc(-c2ccc(NC3(c4ccccc4F)CCC3)nn2)c1 |
| B (B=1-10 uM) | NC(=O)c1cccc(-c2ccc(NC3(c4ncccc4F)CCC3)nn2)c1 |
| B (B=1-10 uM) | NC(=O)c1cccc(-c2ccc(NC3(c4cccc(F)c4)CCC3)nn2)c1 |
| B (B=1-10 uM) | NC(=O)c1cccc(-c2ccc(NC3(c4ccc(Cl)cc4)CCC3)nn2)c1 |
| D (D=>20 uM) | N#Cc1ccc(C2(Nc3ccc(-c4cccc(C(N)=O)c4)nn3)CCC2)cc1 |
| D (D=>20 uM) | COc1ccnc(C2(Nc3ccc(-c4cccc(C(N)=O)c4)nn3)CCC2)c1 |
| B (B=1-10 uM) | NC(=O)c1cccc(-c2ccc(NC3(c4ccc(F)cn4)CCC3)nn2)c1 |
| B (B=1-10 uM) | NC(=O)c1cccc(-c2ccc(NC3(c4ccccc4)CCC3)nn2)c1 |
| B (B=1-10 uM) | NC(=O)c1cc(-c2ccc(NC3(c4ccc(F)cc4)CCC3)nn2)ccn1 |
| A (A=<1 uM) | NC(=O)c1ccc(F)c(-c2ccc(NC3(c4ccc(F)cc4)CCC3)nn2)c1 |

More lines, now with the values behind:

| SMILES | Mean AC1.4 |
| --- | --- |
| CC(C)(CO)Nc1ccc(-c2cccc(C(N)=O)c2)nn1 | D (D=>20 uM) |
| NC(=O)c1ccc(F)c(-c2ccc(NC3(c4ncccc4Cl)CCC3)nn2)c1 | A (A=<1 uM) |
| N#Cc1cc(-c2ccc(NC3(c4ccc(F)cc4)CCC3)nn2)ccn1 | B (B=1-10 uM) |
| NC(=O)c1ccc(F)c(-c2ccc(NC3(c4ncccc4F)CCC3)nn2)c1 | B (B=1-10 uM) |
| CS(=O)(=O)Nc1cccc(-c2ccc(NC3(c4ccc(F)cc4)CCC3)nn2)c1 | A (A=<1 uM) |
| CS(=O)(=O)Nc1ccc(-c2ccc(NC3(c4ccc(F)cc4)CCC3)nn2)cc1 | B (B=1-10 uM) |
| NC(=O)Nc1ccc(-c2ccc(NCC3(c4ncccc4F)CC(F)(F)C3)nn2)cc1 | A (A=<1 uM) |
| NC(=O)Nc1ccc(-c2ccc(NC3(c4ccc(F)cc4)CCC3)nn2)cc1 | A (A=<1 uM) |
| CC(O)(c1cnc(-c2ccc(NCC3(c4ncccc4F)CCC3)nn2)s1)C(F)(F)F (centres unmarked) [1,1,1-trifluoro-2-{2-[6-({[(3-fluoro(2-pyridyl))cyclobutyl]methyl}ami-no)pyridazin-3-yl](1,3-thiazol-5-yl)}propan-2-ol] | C (C=10-20 uM) |
| NC(=O)C1CCCN(C(=O)c2cnc(-c3ccc(NCC4(c5ncccc5F)CCC4)nn3)s2)C1 (centres unmarked) [1-({2-[6-({[(3-fluoro-2-pyridyl)cyclobutyl]methyl}ami-no)pyridazin-3-yl]-1,3-thiazol-5-yl}carbonyl)piperidine-3-carboxamide] | C (C=10-20 uM) |

Same assay, conditions: median AC1.4 reported as class; procedure of Example 39

| Mean AC1.4 | SMILES |
| --- | --- |
| A (A=<1 uM) | CC(C)(CNc1ccc(-c2cn3c(C(N)=O)csc3n2)nn1)c1ncccc1Cl |
| D (D=>20 uM) | CS(=O)(=O)N1CCN(Cc2cnc(-c3ccc(NCC4(c5ncccc5F)CCC4)nn3)s2)CC1 [1-({2-[6-({[(3-fluoro(2-pyridyl))cyclobutyl]methyl}ami-no)pyridazin-3-yl](1,3-thiazol-5-yl)}methyl)-4-(methylsulfonyl)piperazine] |
